Data: ChEMBL document CHEMBL1132011, “The synthesis of ketomethylene pseudopeptide analogues of dipeptide aldehyde inhibitors of calpain” (Bioorg Med Chem Lett, 1999)
Non-standard residues stand in square brackets, D forms with d. Residues, ends and D or L forms follow the SMILES beside them. ξ: configuration not given here. *: point of attachment. ξF = NC(Cc1ccccc1)C(=O)O; Cbz = O=C(OCc1ccccc1)*

Target: T1, Calpain-1 catalytic subunit (Gallus gallus, UniProt P00789)
T1 sequence (P00789 whole entry): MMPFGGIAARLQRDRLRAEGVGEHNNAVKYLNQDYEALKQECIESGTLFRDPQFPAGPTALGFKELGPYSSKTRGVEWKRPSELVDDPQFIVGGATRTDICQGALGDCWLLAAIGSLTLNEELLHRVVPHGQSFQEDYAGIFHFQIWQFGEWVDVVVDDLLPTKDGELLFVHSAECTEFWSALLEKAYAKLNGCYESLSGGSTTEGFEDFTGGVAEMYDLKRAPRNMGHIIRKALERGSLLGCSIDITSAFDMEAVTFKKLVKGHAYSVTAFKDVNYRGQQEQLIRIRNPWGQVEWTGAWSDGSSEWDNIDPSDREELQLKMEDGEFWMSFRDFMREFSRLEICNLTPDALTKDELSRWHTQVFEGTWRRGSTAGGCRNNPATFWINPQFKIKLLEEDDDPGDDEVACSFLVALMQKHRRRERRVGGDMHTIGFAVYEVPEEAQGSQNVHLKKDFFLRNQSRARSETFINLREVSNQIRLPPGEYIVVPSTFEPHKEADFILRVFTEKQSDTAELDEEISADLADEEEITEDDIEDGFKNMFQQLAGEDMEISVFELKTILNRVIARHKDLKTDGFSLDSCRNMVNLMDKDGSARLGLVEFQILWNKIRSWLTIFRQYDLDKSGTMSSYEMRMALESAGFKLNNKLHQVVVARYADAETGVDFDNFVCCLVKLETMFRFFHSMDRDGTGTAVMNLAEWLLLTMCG
Assay: Inhibitory activity against chicken gizzard smooth muscle calpain

Ki [nM] | Compound
10 | CC(C)[C@H](NC(=O)OCc1ccccc1)C(=O)NC(C=O)Cc1ccccc1 (stereo partly drawn) (Cbz-Val-[ξF]-aldehyde)
45000 | CC(C=O)CC(=O)[C@@H](NC(=O)OCc1ccccc1)C(C)C (stereo partly drawn)
2500 | CC(C)[C@H](NC(=O)OCc1ccccc1)C(=O)C[C@H](C=O)Cc1ccccc1
